Data published in patent US4215069A, “Arylthiovinylcyclopropanecarboxylate intermediates” (FMC Corporation, priority 1979, dated 1980).

How the values were obtained:
[1] = test system: milkweed bug (Oncopeltus faciatus [Dallas]); assay: Initial contact activity against milkweed bug (percent kill); format: in vivo; conditions: 72 hours exposure, read-out: Percent Kill MWB, initial activity
Description: (§1) The test compound was dissolved in a small amount of acetone, and the acetone solution was dispersed in water containing one drop of isooctylphenyl polyethoxyethanol to make a solution having 1250 ppm (w/w) active ingredient. Aliquots of this solution were diluted with an appropriate amount of water to provide solutions containing various concentrations of active ingredient. Test organisms and techniques were as follows: the activity against Mexican bean beetle (Epilachna varivestis Muls.) and southern armyworm (Spodoptera eridania [Cram.]) was evaluated by dipping the leaves of pinto bean plants into the test solution and infesting the leaves with the appropriate immature-form insects when the foliage had dried. The activity against the pea aphid (Acyrthosiphon pisum [Harris]) was evaluated on broad bean plants whose leaves were dipped before infestation with adult aphids. The activity against twospotted spider mites (Tetranychus urticae Koch) was evaluated on pinto bean plants whose leaves were dipped after infestation with adult mites. The activity against the milkweed bug (Oncopeltus faciatus [Dallas]) was evaluated by spraying the test solutions into glass dishes or jars containing the adult insects. Following application of the compound and infestation the tests were maintained in a holding room at 80° F. and 50% relative humidity for an exposure period of 72 hours. At the end of this time the dead and living insects or mites were counted and the percent kill was calculated. Results of these tests are summarized in Table I. Most of the compounds tested were active against all the insects.

[2] = test system: Mexican bean beetle (Epilachna varivestis Muls.); assay: Initial contact activity against Mexican bean beetle (percent kill); format: in vivo; conditions: 72 hours exposure, read-out: Percent Kill MBB, initial activity
Description: as §1

[3] = test system: southern armyworm (Spodoptera eridania [Cram.]); assay: Initial contact activity against southern armyworm (percent kill); format: in vivo; conditions: 72 hours exposure, read-out: Percent Kill AW, initial activity
Description: as §1

[4] = test system: pea aphid (Acyrthosiphon pisum [Harris]); assay: Initial contact activity against pea aphid (percent kill); format: in vivo; conditions: 72 hours exposure, read-out: Percent Kill PA, initial activity
Description: as §1

[5] = test system: twospotted spider mites (Tetranychus urticae Koch); assay: Initial contact activity against twospotted spider mite (percent kill); format: in vivo; conditions: 72 hours exposure, read-out: Percent Kill SM, initial activity
Description: as §1

Milkweed bug = assay: 7-day residual contact activity against milkweed bug (percent kill); format: in vivo, Oncopeltus faciatus; conditions: Oncopeltus fasciatus, 168 h, treated surface aged seven days in light and air, read-out: Percent Kill MWB, 7-day residual activity
Description: as §1
(§2) The residual contact activity of certain of the compounds was determined on the same organisms using the techniques described above, except that in each case the treated surface was allowed to dry and was exposed to normal light and air for seven days before introduction of the mites or insects. The seven day residual activity was minimal for the mite but substantial against the remaining organisms. Again, the remarkable activity of some of these compounds against milkweed bug and Mexican bean beetle was noted.

Mexican bean beetle = assay: 7-day residual contact activity against Mexican bean beetle (percent kill); format: in vivo; conditions: Epilachna varivestis, 168 h, treated surface aged seven days in light and air, read-out: Percent Kill MBB, 7-day residual activity
Description: as §1, §2

Southern armyworm = assay: 7-day residual contact activity against southern armyworm (percent kill); format: in vivo; conditions: Spodoptera eridania, 168 h, treated surface aged seven days in light and air, read-out: Percent Kill AW, 7-day residual activity
Description: as §1, §2

Pea aphid = assay: 7-day residual contact activity against pea aphid (percent kill); format: in vivo; conditions: Acyrthosiphon pisum, 168 h, treated surface aged seven days in light and air, read-out: Percent Kill PA, 7-day residual activity
Description: as §1, §2

Twospotted spider mite = assay: 7-day residual contact activity against twospotted spider mite (percent kill); format: in vivo; conditions: Tetranychus urticae, 168 h, treated surface aged seven days in light and air, read-out: Percent Kill SM, 7-day residual activity
Description: as §1, §2

Compound	mortality at 78 ppm [1]	mortality at 312 ppm [1]	mortality at 1250 ppm [1]	mortality at 5 ppm [2]	mortality at 20 ppm [2]	mortality at 78 ppm [2]	mortality at 1250 ppm [2]	mortality at 5 ppm [3]	mortality at 20 ppm [3]	mortality at 78 ppm [3]	mortality at 1250 ppm [3]	mortality at 78 ppm [4]	mortality at 312 ppm [4]	mortality at 1250 ppm [4]	mortality at 312 ppm [5]	mortality at 1250 ppm [5]	activity at 312 ppm (Milkweed bug)	activity at 1250 ppm (Milkweed bug)	activity at 20 ppm (Southern armyworm)	activity at 78 ppm (Southern armyworm)	further results
CC1(C)C(C=C(Cl)Sc2ccccc2)C1C(=O)OCc1cccc(Oc2ccccc2)c1 (mixture of isomers) [Example 4, 3-phenoxybenzyl cis,trans-3-[2-(E,Z)chloro-2-phenylthioethenyl]-2,2-dimethylcyclopropanecarboxylate]	10%	90%	100%	100%	94%	100%	95%	11%	0%	68%	100%	75%	100%	100%	31%	42%	20%	100%	0%	5%	mortality at 312 ppm [2]: 100%; mortality at 312 ppm [3]: 89%; activity at 20 ppm (Mexican bean beetle; 20 ppm): 89%; activity at 78 ppm (Mexican bean beetle; 78 ppm): 100%; activity at 312 ppm (Mexican bean beetle; 312 ppm): 100%; activity at 1250 ppm (Mexican bean beetle; 1250 ppm): 100%; activity at 312 ppm (Southern armyworm): 55%; activity at 1250 ppm (Southern armyworm): 95%; activity at 312 ppm (Pea aphid): 0%; activity at 1250 ppm (Pea aphid): 85%; activity at 1250 ppm (Twospotted spider mite): 0%
CC1(C)C(C=CSc2ccccc2)C1C(=O)OCc1cccc(Oc2ccccc2)c1 (mixture of isomers) [Example 1, 3-phenoxybenzyl cis,trans-3-[2-(E,Z)-phenylthioethenyl]-2,2-dimethylcyclopropanecarboxylate]	10%	5%	30%	28%	0%	62%	100%	0%	0%	0%	0%	0%	0%	0%	0%	0%	10%	0%	0%	0%	mortality at 20 ppm [1]: 10%; mortality at 1.2 ppm [2]: 44%; mortality at 1.2 ppm [3]: 0%; mortality at 20 ppm [4]: 0%; mortality at 20 ppm [5]: 0%; mortality at 78 ppm [5]: 0%; activity at 78 ppm (Milkweed bug): 5%; activity at 312 ppm (Southern armyworm): 0%; activity at 1250 ppm (Southern armyworm): 0%; activity at 78 ppm (Pea aphid): 0%; activity at 312 ppm (Pea aphid): 10%; activity at 1250 ppm (Pea aphid): 30%; activity at 1250 ppm (Twospotted spider mite): 0%
CC1(C)C(C=C(Cl)Sc2ccccc2)C1C(=O)OC(c1cccc(Oc2ccccc2)c1)C(F)(F)F (mixture of isomers) [Example 7, α-trifluoromethyl-3-phenoxybenzyl cis,trans-3-[2-(E,Z)-chloro-2-phenylthioethenyl]-2,2-dimethylcyclopropanecarboxylate]	5%	32%	100%		90%	100%				0%	0%	94%	100%	100%		62%					mortality at 312 ppm [2]: 100%; mortality at 312 ppm [3]: 0%
CC1(C)C(C=CSc2ccccc2)C1C(=O)OC(C#N)c1cccc(Oc2ccccc2)c1 (mixture of isomers) [Example 2, α-cyano-3-phenoxybenzyl cis,trans-3-[2-(E,Z)-phenylthioethenyl]-2,2-dimethylcyclopropanecarboxylate]	20%	90%	100%	0%	22%	80%	100%	0%	0%	0%	41%	0%	5%	75%	0%	0%	0%	5%	0%	0%	mortality at 20 ppm [1]: 0%; mortality at 1.2 ppm [2]: 6%; mortality at 1.2 ppm [3]: 0%; mortality at 20 ppm [4]: 0%; mortality at 20 ppm [5]: 0%; mortality at 78 ppm [5]: 0%; activity at 78 ppm (Milkweed bug): 5%; activity at 312 ppm (Southern armyworm): 0%; activity at 1250 ppm (Southern armyworm): 0%; activity at 78 ppm (Pea aphid): 30%; activity at 312 ppm (Pea aphid): 23%; activity at 1250 ppm (Pea aphid): 100%; activity at 1250 ppm (Twospotted spider mite): 0%
